# Results as given in ChEMBL document CHEMBL3860065, “Synthesis and biological evaluation of azole-diphenylpyrimidine derivatives (AzDPPYs) as potent T790M mutant form of epidermal growth factor receptor inhibitors” (Bioorg Med Chem, 2016).
# pIC50: −log10 of the molar value.
# Legend:
# [1] = biological target: Epidermal growth factor receptor (Homo sapiens, UniProt P00533, L858R/T790M); assay: biochemical; assay type: cell-based, Sf9
# [2] = biological target: Epidermal growth factor receptor (Homo sapiens, UniProt P00533); assay type: ADME, cell-based, Sf9
# Description: Inhibition of human recombinant N-terminal GST-tagged wild type EGFR cytoplasmic domain (695 end residues) autophosphorylation expressed in baculovirus infected Sf9 insect cells by ADP-Glo luminescence assay
# cells = assay type: functional, cell-based; conditions: Homo sapiens, NCI-H1975, 48 h
# [3] = Antiproliferative activity against wild type human A431 cells after 48 hrs by MTT assay; assay type: functional, cell-based; conditions: A-431, 48 h
# [4] = Antiproliferative activity against human A549 cells harboring K-ras mutation after 48 hrs by MTT assay; assay type: functional, cell-based; conditions: A549, 48 h
# [5] = Antiproliferative activity against NHBE cells after 48 hrs by MTT assay; assay type: ADME, cell-based; conditions: Homo sapiens
# [6] = human
# NCI-H1975 [7] = assay: Potency index, ratio of gefitinib IC50 to compound IC50 against human NCI-H1975 cells harboring L858R/T790M double mutant; assay type: functional
# NCI-H1975 [8] = assay: Induction of apoptosis in human NCI-H1975 cells harboring L858R/T790M double mutant assessed as early apoptotic cells at 200 nM after 48 hrs by annexin V-FITC/PI staining based flow cytometric analysis (reference value: 2%); assay type: functional
# NCI-H1975 [9] = assay: Induction of apoptosis in human NCI-H1975 cells harboring L858R/T790M double mutant assessed as late apoptotic cells at 500 nM after 48 hrs by annexin V-FITC/PI staining based flow cytometric analysis (reference value: 3.4%); assay type: functional
# NCI-H1975 [10] = assay: Induction of apoptosis in human NCI-H1975 cells harboring L858R/T790M double mutant assessed as necrotic cells at 200 nM after 48 hrs by annexin V-FITC/PI staining based flow cytometric analysis (reference value: 0.4%); assay type: functional
# NCI-H1975 [11] = assay: Induction of apoptosis in human NCI-H1975 cells harboring L858R/T790M double mutant assessed as necrotic cells at 500 nM after 48 hrs by annexin V-FITC/PI staining based flow cytometric analysis (reference value: 0.4%); assay type: functional
# NCI-H1975 [12] = assay: Induction of apoptosis in human NCI-H1975 cells harboring L858R/T790M double mutant assessed as early apoptotic cells at 50 nM after 48 hrs by annexin V-FITC/PI staining based flow cytometric analysis (reference value: 2%); assay type: functional
# NCI-H1975 [13] = assay: Induction of apoptosis in human NCI-H1975 cells harboring L858R/T790M double mutant assessed as late apoptotic cells at 200 nM after 48 hrs by annexin V-FITC/PI staining based flow cytometric analysis (reference value: 3.4%); assay type: functional
# NCI-H1975 [14] = assay: Induction of apoptosis in human NCI-H1975 cells harboring L858R/T790M double mutant assessed as viable cells at 200 nM after 48 hrs by annexin V-FITC/PI staining based flow cytometric analysis (reference value: 94.2%); assay type: functional; conditions: NCI-H1975, 48 h, read-out: Activity
# NCI-H1975 [15] = assay: Induction of apoptosis in human NCI-H1975 cells harboring L858R/T790M double mutant assessed as late apoptotic cells at 50 nM after 48 hrs by annexin V-FITC/PI staining based flow cytometric analysis (reference value: 3.4%); assay type: functional
# NCI-H1975 [16] = assay: Induction of apoptosis in human NCI-H1975 cells harboring L858R/T790M double mutant assessed as viable cells at 500 nM after 48 hrs by annexin V-FITC/PI staining based flow cytometric analysis (reference value: 94.2%); assay type: functional; conditions: NCI-H1975, 48 h, read-out: Activity
# NCI-H1975 [17] = assay: Induction of apoptosis in human NCI-H1975 cells harboring L858R/T790M double mutant assessed as early apoptotic cells at 500 nM after 48 hrs by annexin V-FITC/PI staining based flow cytometric analysis (reference value: 2%); assay type: functional
# NCI-H1975 [18] = assay: Induction of apoptosis in human NCI-H1975 cells harboring L858R/T790M double mutant after 48 hrs by annexin V-FITC/PI staining based flow cytometric analysis; assay type: functional, cell-based
# NCI-H1975 [19] = assay: Induction of apoptosis in human NCI-H1975 cells harboring L858R/T790M double mutant assessed as necrotic cells at 50 nM after 48 hrs by annexin V-FITC/PI staining based flow cytometric analysis (reference value: 0.4%); assay type: functional
# [20] = tested on: Epidermal growth factor receptor (Homo sapiens), P00533 [L858R,T790M]; assay: Potency index, ratio of rociletinib IC50 to compound IC50 for human recombinant N-terminal GST-tagged EGFR T790M/L858R double mutant cytoplasmic domain (695 end residues) autophosphorylation expressed in baculovirus infected Sf9 insect cells
# NCI-H1975 [21] = assay: Induction of apoptosis in human NCI-H1975 cells harboring L858R/T790M double mutant assessed as viable cells at 50 nM after 48 hrs by annexin V-FITC/PI staining based flow cytometric analysis (reference value: 94.2%); assay type: functional; conditions: NCI-H1975, 48 h, read-out: Activity
Compound,pIC50 [1],pIC50 [2],pIC50 (cells),pIC50 [3],pIC50 [4],pIC50 [5],pIC50 [6],further results
C=CC(=O)Nc1cccc(Nc2nc(Nc3ccc(Cn4ccnc4)cc3)ncc2F)c1,8.05,6.01,5.76,6.82,5.45,< 4.40,6.96,–
C=CC(=O)Nc1cccc(Nc2nc(Nc3ccc(NC(=O)Cn4ccnc4)cc3)ncc2[N+](=O)[O-])c1,–,–,4.94,4.79,< 4.40,< 4.40,< 8.07,–
C=CC(=O)Nc1cccc(Nc2nc(Nc3ccc(OCCCn4ccnc4)cc3)ncc2[N+](=O)[O-])c1,–,–,5.08,5.19,4.56,4.41,< 7.61,–
C=CC(=O)Nc1cccc(Nc2nc(Nc3ccc(Cn4ccnc4)cc3)ncc2Cl)c1,8.48,6.00,6.93,6.13,5.56,< 4.40,6.52,Ratio IC50 (NCI-H1975 [7]): 10; Activity (NCI-H1975 [8]): 24.3%; Activity (NCI-H1975 [9]): 3.7%; Activity (NCI-H1975 [10]): 0.1%; Activity (NCI-H1975 [11]): 0.1%; Activity (NCI-H1975 [12]): 16.3%; Activity (NCI-H1975 [13]): 4.2%; viability at 0.2 µM (NCI-H1975 [14]): 71.3%; Activity (NCI-H1975 [15]): 2.6%; viability at 0.5 µM (NCI-H1975 [16]): 39.6%; Activity (NCI-H1975 [17]): 56.7%; Activity (NCI-H1975 [18]): Dose-dependent effect; Activity (NCI-H1975 [19]): 0.1%; Ratio IC50 [20]: 8; viability at 0.05 µM (NCI-H1975 [21]): 81%
C=CC(=O)Nc1cccc(Nc2nc(Nc3ccc(OCCn4ccnc4)cc3)ncc2F)c1,8.04,< 6.00,5.74,5.61,5.08,4.40,< 6.96,–
C=CC(=O)Nc1cccc(Nc2nc(Nc3ccc(-n4ccnc4)cc3)ncc2[N+](=O)[O-])c1,7.01,< 6.00,4.90,4.91,< 4.40,< 4.40,< 7.99,–
C=CC(=O)Nc1cccc(Nc2nc(Nc3ccc(OCCn4cncn4)cc3)ncc2Cl)c1,6.99,< 6.00,5.63,5.23,4.96,< 4.40,< 8.01,–
C=CC(=O)Nc1cccc(Nc2nc(Nc3ccc(N4CCN(C(C)=O)CC4)cc3OC)ncc2C(F)(F)F)c1 [ROCILETINIB],–,–,6.86,5.89,5.19,< 4.40,7.67,–
C=CC(=O)Nc1cccc(Nc2nc(Nc3ccc(Cn4ccnc4)cc3OC)ncc2Cl)c1,6.96,6.30,6.03,5.17,4.84,< 4.40,8.33,–
C=CC(=O)Nc1cccc(Nc2nc(Nc3ccc(OCCn4ccnc4)cc3)ncc2Cl)c1,6.97,< 6.00,6.41,5.87,5.07,4.41,< 8.03,–
